Measurements as given in patent US20100255580A1, “Differentiation of Human Embryonic Stem Cells” (LIFESCCAN, INC., priority 2007, published 2010).

Test system: human embryonic stem cells (H9, H7) on MATRIGEL
Assay: Real-time PCR of definitive endoderm markers, DE protocol on […] or fibronectin (feeder-free)
Type: cell-based
Conditions: for expression of definitive endoderm markers: with 50 ng/ml of AA, 20 ng/ml Wnt-3A or 100 nM GSK-3B inhibitor IX
Procedure: Real-time PCR amplification and quantitative analysis.
Final data were expressed relative to a calibrator sample.
Differentiation of embryonic stem cells to definitive endoderm was carried out as previously described in Nature Biotechnology 23, 1534-1541 (December 2005). […] In all subsequent examples unless otherwise noted, this treatment regimen will be referred to as the definite endoderm (DE) protocol. In parallel, H9, H7, or H1 cells cultured on MEF feeders were also exposed to the same DE protocol outlined above.
At day 5, the cultures were analyzed by FACS for CXCR4, E-cadherin, CD9, CD99, and N-cadherin (CD56) expression and by real time PCR for SOX-17, SOX-7, Alpha-fetal protein (AFP), CXCR4, Brychyury (Bry), gooscecoid (GSC), HNF-3 beta, and GATA4. AFP and SOX-7 are regarded as visceral endoderm markers while GATA4, HNF-3beta and SOX-17 represent definite endoderm markers and GSC, Bry, and CXCR4 represent markers of primitive streak.
In some of the cultures 20 ng/ml Wnt-3a (Catalog #1324-WN-002, R&D Systems, MN), 20 ng/ml Wnt-5a (Catalog #654-WN-010, R&D Systems, MN), 25 ng/ml Wnt-7a (Catalog #3008-WN-025, R&D Systems, MN), or 25 ng/ml Wnt-5b (Catalog #3006-WN-025, R&D Systems, MN) was added throughout the five day treatment. FIG. 24 depicts phase contrast images of H9P46 definitive endoderm culture in the presence of high concentration of (a) AA or (b) AA+20 ng/ml Wnt-3a. FIG. 25 depicts the expression of CXCR4 by FACS at day 5 for H7P44, and H9P46 lines cultured on […] (1:30 dilution) and exposed to the DE protocol+Wnt-3a (FIG. 25, panels b and d) and −Wnt-3a (FIG. 25, panels a and c).
Control cultures were not treated with Wnt-3a. FIG. 27, panel a depicts the expression of CXCR4 by FACS at day 5 in the absence of Wnt-3a, b) 10 ng/ml Wnt-3a, c) 20 ng/ml Wnt-3a and d) 50 ng/ml Wnt-3a. In the absence of Wnt-3a the expression of CXCR4 was very low. […] Real-time PCR results (FIG. 28, panel a) also confirm this finding.
In a separate study, H9 p52 cells were plated on 1:30 low growth factor […]™. For the first 2 days of the DE protocol a range of Wnt3A doses was used: 10 ng/ml, 5 ng/ml and 1 ng/ml. […] The number of cells at the end of the experiment is noted in FIG. 28, panel c.
In order to confirm that the effect of Wnt-3a was through the Wnt pathway, a GSK-3 inhibitor was used to activate the downstream targets of Wnt, such as beta catenin. […] FIG. 29, panel a depicts the expression of CXCR4 by FACS at day 5 in the absence of Wnt-3a or GSK-3B inhibitor, b) +20 ng/ml Wnt-3a, c) +1000 nM GSK-3B inhibitor IX, d) +500 nM GSK-3B inhibitor IX, e) +100 nM GSK-3B inhibitor IX, f) +10 nM GSK-3B inhibitor IX, g) +100 nM GSK-3B inhibitor IX for days 1-2, and h) +10 nM GSK-3B inhibitor IX for days 1-2.
FIG. 31 panels a-d is for H9P49 cells and panels e-f is for H1P46 cells.
Results are expressed as fold increase over untreated cells. […] Results are expressed as fold increase over untreated cells.
H9P55 cells were grown and differentiated on human fibronectin or regular growth factor […]™ (BD Biosciences). lml of DMEM/F12 (Invitrogen/GIBCO) containing 1 ug/ml of human fibronectin (R&D systems, MN) was added to each well of 6 well tissue culture treated dish. Alternatively, regular growth factor […]™ was diluted 1:10 in DMEM/F12 and 1 ml of diluted […]™ was added to each well of 6 well tissue culture treated dish. Cells were passed with collagenase. […] Real-time PCR results (FIG. 39) confirm that formation of definitive endoderm was equivalent on fibronectin and […]™ coated plates.
To determine if the addition of Wnt-3a was causing the increase in differentiation, an inhibitor of Wnt-3 signaling was added to the cultures. […] H9 cells were cultured on plates coated with Growth Factor Reduced […] at a 1:30 dilution. The plates were coated with […] for 1 hr at room temperature. […]

| Compound | expression of definitive endoderm markers (H9P49) | definitive endoderm markers (real-time PCR) (H7 and H9, low serum+AA+/−Wnt ligands, 5 days) | Wnt3a dose sufficient to reach optimal cell expansion and definitive endoderm differentiation (H9 p52, for 2 days) [ng/mL] | outcome of lower doses of activin A (H9P49, with Wnt-3a or GSK-3B inhibitor IX) |
| --- | --- | --- | --- | --- |
| O=C1Nc2cc(Br)ccc2/C1=C1/Nc2ccccc2/C1=N\O [GSK-3B inhibitor IX, reference compound] | robust expression | – | – | – |
| Wnt-3a | robust expression | significant upregulation | 10 | – |
| Activin A: a member of the TGFβ superfamily; R&D Systems; Group 2 = Activin A (100 ng/ml) | – | – | – | formation of extraembryonic endoderm |
